# Paper PMC7648750, “In vitro and in vivo BNCT investigations using a carborane containing sulfonamide targeting CAIX epitopes on malignant pleural mesothelioma and breast cancer cells” (Scientific Reports, 2020)
# Columns and labels:
# AB22 cells = assay: MTT cell vitality assay; assay type: cell-based, mouse; conditions: normoxia
# Protocol: The MTT assay is based on the reduction in the mitochondria of metabolically active cells by succinate dehydrogenase obtaining a precipitation of purple formazan crystal. The assay was carried out using the same protocol reported by Azzi et al[42]. Briefly, AB22, ZL34 and MCF7 cells were seeded at a density of 7 × 10^3, 5 × 10^3 and 1 × 10^4 cells per well, respectively, in a 96-well microtiter plate. After 24 h at 37 °C and 5% CO2, they were incubated with increasing concentration of CA-SF or AZ for 24 h in a condition of normoxia at 37 °C and 5% CO2 by adding stock solutions in dimethyl sulfoxide (DMSO). In all the conditions the concentration of DMSO during the cell incubation was maintained under 0.25% (v/v) in cell medium. After the incubation, the medium was removed and each well was incubated with thiazolyl blue tetrazolium bromide (Sigma) dissolved in the medium at a concentration of 0.45 mg/mL for 4 h at 37 °C and 5% CO2. Then, after medium elimination, 150 µL of DMSO were added into each well to solubilise the formazan salt crystals produced by the metabolism of live cells and the microplate was incubated at room temperature (RT) for 30 min. Finally, absorbance was measured at 570 nm using an iMark microplate reader (Biorad). Cell vitality was reported as the percentage of […] cells observed in the treated samples relative to that observed in the non-treated control cells.
# MCF7 cells [1] = assay: BNCT in vitro: viable cells 24 h after neutron irradiation (trypan blue); assay type: cell-based, human; conditions: MCF7, 72 µM 24 h, thermal neutrons 15 min 30 kW, 24 h after irradiation
# Protocol: (§1) 75 flasks of MCF7 (4 flasks), ZL34 (4 flasks) and AB22 (4 flasks) were seeded at a density of 1.8 × 10^6 cells, 1.2 × 10^6 cells and 5.5 × 10^5 cells, respectively. 24 h later for MCF7 and ZL34 and 72 h later for AB22, 2 flasks of each cell lines were incubated for 24 h in the presence of 72 µM, 187.5 µM and 130 µM of CA-SF, respectively. After the incubation, cells were washed with PBS and their medium was renewed. Two flasks of MCF7, ZL34 and AB22 cells incubated with CA-SF and two flasks containing non-treated control cells were irradiated for 15′ at 30 kW reactor power in the thermal column of the TRIGA Mark II reactor at the University of Pavia, Italy. At the end of the irradiation, the medium was removed, it was replaced with fresh medium and flasks were placed at 37 °C in a humidified atmosphere of 5% CO2.
# (§2) The proliferation assay was carried out following the same procedure reported in reference 32. The day after irradiation cells were detached with 0.05% trypsin and 0.02% EDTA and the trypan blue exclusion test of cell viability was performed. Cell viability was reported as percentage of cells observed in treated a/o irradiated samples relative to that observed in control cells.
# ZL34 cells [2] = assay: as above; assay type: cell-based, human; conditions: ZL34, 187.5 µM 24 h, thermal neutrons 15 min 30 kW, 24 h after irradiation
# Protocol: as §1, §2
# MCF7 cells [3] = assay: Proliferation assay of cells surviving irradiation; assay type: cell-based, human; conditions: MCF7, 72 µM CA-SF before neutron irradiation
# Protocol: as §1, with “At the end of the irradiation, the medium was removed, it was replaced with fresh medium and flasks were placed at 37 °C in a humidified atmosphere of 5% CO2.” left out
# (§3) Then, around 7 × 10^5 MCF7, 3.5 × 10^5 ZL34 and 1 × 10^5 AB22 cells from each differently treated flask were seeded in 10 cm diameter culture dishes. […] Then, cells were sonicated for 30 s at 30% power in ice and the total cell protein concentration (that is proportional to the number of cells) from cell lysates was determined by the Bradford method, using bovine serum albumin as a standard. The Cell Growth Rate was calculated as follows: Number of cellsti-Number of cellst0/Number of cellst0×100 for which Number of cells (ti) is the number of cells measured at the various time intervals and the number of cells (t0) is the number of cells at the starting point (t = 0) of the proliferation assay.
# ZL34 cells [4] = assay: Proliferation assay of cells surviving irradiation; assay type: cell-based, human; conditions: ZL34, 187.5 µM CA-SF before neutron irradiation
# Protocol: as §1, with “At the end of the irradiation, the medium was removed, it was replaced with fresh medium and flasks were placed at 37 °C in a humidified atmosphere of 5% CO2.” left out
# as §3
# [5] = Boron biodistribution in AB22 tumour bearing mice (ICP-MS); assay type: in vivo, Balb/c mice; conditions: 37.5 mg/kg of boron, ± SD; for Brain [boron]: with β-cyclodextrin oligomer
# Protocol: Adult male Balb/c mice were maintained under specific pathogen-free conditions at the animal facility of the Department of Molecular Biotechnology and Health Sciences (Turin University, Italy). All animal experiments have been carried out in accordance with the EU Directive 2010/63/EU for animal experiments. The animal treatment protocol was approved by the Italian Ministry of Health (Authorization Number 1012/2015-PR). AB22 cells were cultured as described above and tumours were generated by the injection of 4.8 × 10^6 AB22 cells in a final volume of 0.15 ml GFNR Matrigel (CORNING Ref. 354234): PBS (1:1 v/v) subcutaneously in the neck of the mouse. One week after the AB22-cell injection, the mice developed solid tumours of approximately 50 ± 10 mm^3 in volume. At this time, mice (n = 6) received an intravenous injection of CA-SF (88 mg/kg corresponding to 37.5 mg/kg of ^10B). Before the injection, CA-SF in DMSO was mixed in the presence of poly β-cyclodextrin (MW = 15,000 Da) previously dissolved in 0.9% solution of NaCl. The used CA-SF molar ratio with respect to β-cyclodextrin oligomer was 10:1. The DMSO concentration in 0.9% NaCl was kept under 5%. The mice were then sacrificed at 6 h (n = 3) and at 16 h (n = 3). The boron content of mice plasma, tumours, organs (Liver, Lung, Brain, Spleen, Kidneys) and healthy tissues (Muscle) was determined by ICP-MS technique (see below).
# Boron content from cell samples, mice organs, plasma and tumours were determined using inductively coupled plasma mass spectrometry (ICP-MS) (Element-2; Thermo-Finnigan, Rodano (MI), Italy).
# The mice blood was collected and centrifuged at 2500 rpm for 10 min to split the plasma part over whole blood; the tumours, organs and healthy tissues were explanted. All was weighted, dissolved in HNO3 (70%) and digested. Both natural boron abundant and ^10B enriched standard solution was analyzed during sample runs in order to check for variations in the systematic bias. The calibration curve was obtained using four boron absorption standard solutions (Sigma-Aldrich) in the range 0.1–0.004 μg/mL.
# [6] = Solubility in aqueous media; assay type: physicochemical
substance,measurement,setting,value
1-Sulfonamidomethyl-o-carborane [CA-SF],cell vitality measured by MTT,"AB22 cells; AB22, 130 µM CA-SF, 24 h, 37 °C",about 80%
same,percentage of viable cells with increasing concentration (MTT),"AB22 cells; AB22, 24 h, Fig. 3",steadily decreases
same,viability of CA-SF treated and irradiated cells vs CA-SF treated cells,MCF7 cells [1],significantly reduced
same,viability of CA-SF treated and irradiated cells vs CA-SF treated cells,ZL34 cells [2],comparable
same,proliferation rate of cells surviving to irradiation,MCF7 cells [3],marked inhibition of proliferation
same,proliferation rate of cells surviving to irradiation,ZL34 cells [4],marked inhibition of proliferation
same,Brain [boron],[5]; 6 h post i.v.,30.7 ± 11.2 µg/g
same,Kidney [boron],[5]; 6 h post i.v.,48.2 ± 15.3 µg/g
same,Liver [boron],[5]; 6 h post i.v.,64.5 ± 1.2 µg/g
same,Lungs [boron],[5]; 6 h post i.v.,37.2 ± 11.2 µg/g
same,Muscle [boron],[5]; 6 h post i.v.,13.2 ± 2.5 µg/g
same,Plasma [boron],[5]; 6 h post i.v.,20.4 ± 5.4 µg/g
same,Spleen [boron],[5]; 6 h post i.v.,18.5 ± 5.8 µg/g
same,Tumour [boron],[5]; 6 h post i.v.,13.8 ± 2.4 µg/g
same,Brain [boron],[5]; 16 h post i.v.,7.3 ± 1.1 µg/g
same,Kidney [boron],[5]; 16 h post i.v.,13.7 ± 1.9 µg/g
same,Liver [boron],[5]; 16 h post i.v.,22.7 ± 3.5 µg/g
same,Lungs [boron],[5]; 16 h post i.v.,12.1 ± 2.2 µg/g
same,Muscle [boron],[5]; 16 h post i.v.,4.4 ± 1.2 µg/g
same,Plasma [boron],[5]; 16 h post i.v.,11.1 ± 1.3 µg/g
same,Spleen [boron],[5]; 16 h post i.v.,6.2 ± 1.5 µg/g
same,Tumour [boron],[5]; 16 h post i.v.,7.4 ± 2.1 µg/g
same,solubility in aqueous media,[6],low
